# Measurements from patent US10316017B2, “COT modulators and methods of use thereof” (Gilead Sciences, Inc., priority 2015, dated 2019).
# Like-named read-outs stand apart in the source and are kept apart here.
# Assays:
# [1] = target: T1, human Cot catalytic domain (30-397 amino acids) (Homo sapiens, UniProt P41279); experiment: High Throughput Cot Biochemical Assay (KinEASE TR-FRET); conditions: read-out: IC50 HTRF
# T1 construct: Purified recombinant human Cot catalytic domain (30-397 amino acids) was purchased from Cama Biosciences; purchased Cama Biosciences (so in the source)
# Summary of the method: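 First, purified human Cot (aa 30-397) at 5 nM phosphorylates an XL665-labeled STK3 peptide (1 μM) at 400 μM ATP, pH 7.0, 0.1% DMSO. Then a europium-conjugated phospho-specific antibody binds the product, giving the TR-FRET signal.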
# [2] = test system: TNFα production in LPS-stimulated human monocytes; experiment: Cot Monocyte TNFα Cell Based Assay; conditions: Homo sapiens, Monocyte, read-out: EC50 TNF
# Summary of the method: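 5,000 cells/well; cmpd 1 h, 37 °C, 0.5% DMSO final; LPS 50 pg/ml, 4 h, 37 °C; media TNFα by HTRF sandwich (cryptate/XL665), RT overnight; % control vs unstimulated/stimulated wells.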
# [3] = Cot KinEASE TR-FRET, 400 μM ATP
# [4] = LPS-stimulated human monocytes, TNFα TR-FRET
# [5] = Cot KinEASE TR-FRET (HTRF) biochemical assay, 400 μM ATP
# [6] = TNFα in LPS-stimulated human monocytes
# [7] = Cot biochemical HTRF (KinEASE TR-FRET) assay
# T1 sequence (P41279 30-397): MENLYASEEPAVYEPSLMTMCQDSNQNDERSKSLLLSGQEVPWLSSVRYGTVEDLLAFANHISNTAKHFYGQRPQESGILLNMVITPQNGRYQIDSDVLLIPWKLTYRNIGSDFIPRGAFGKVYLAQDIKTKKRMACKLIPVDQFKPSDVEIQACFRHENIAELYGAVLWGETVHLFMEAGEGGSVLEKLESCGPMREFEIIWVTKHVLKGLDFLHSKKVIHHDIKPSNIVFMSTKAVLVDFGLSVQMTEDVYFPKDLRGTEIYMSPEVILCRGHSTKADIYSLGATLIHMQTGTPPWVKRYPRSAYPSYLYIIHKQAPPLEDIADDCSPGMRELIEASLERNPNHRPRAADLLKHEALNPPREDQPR
SMILES,"IC50 [1, 3] [nM]","EC50 [2, 4] [nM]","IC50 [1, 5] [nM]","EC50 [2, 6] [nM]","IC50 [1, 7] [nM]"
"[2H][C@@](Nc1cc(Cl)c2ncc(C#N)c(NCC(C)(C)C)c2c1)(c1cn(CC(=O)O)nn1)c1ccccc1Cl [Example 108, (S)-2-(4-(((8-chloro-3-cyano-4-(neopentylamino)quinolin-6-yl)amino)(2-chlorophenyl)methyl-d)-1H-1,2,3-triazol-1-yl)acetic acid]",,,48,> 1000,
"C[C@@H](Nc1c(C#N)cnc2c(Cl)cc(N[C@@H](c3cccc(C(=O)N(C)C)c3)c3c[nH]nn3)cc12)c1ccccc1 [Example 578, 3-((S)-((8-chloro-3-cyano-4-(((R)-1-phenylethyl)amino)quinolin-6-yl)amino)(1H-1,2,3-triazol-4-yl)methyl)-N,N-dimethylbenzamide]",,,,2150,13
"CC1(CNc2c(C#N)cnc3c(Cl)cc(N[C@@H](c4ccccc4)c4cn(C5CCN(C(C)(C)C)CC5)nn4)cc23)CCC1 [Example 453, (S)-6-(((1-(1-(tert-butyl)piperidin-4-yl)-1H-1,2,3-triazol-4-yl)(phenyl)methyl)amino)-8-chloro-4-(((1-methylcyclobutyl)methyl)amino)quinoline-3-carbonitrile]",,,,231,11
"CC(C)(C)N1CCC(n2cc([C@@H](Nc3cc(Cl)c4ncc(C#N)c(N[C@@H]5CCc6ccccc65)c4c3)c3ccccc3)nn2)CC1 [Example 583, 6-(((S)-(1-(1-(tert-butyl)piperidin-4-yl)-1H-1,2,3-triazol-4-yl)(phenyl)methyl)amino)-8-chloro-4-(((R)-2,3-dihydro-1H-inden-1-yl)amino)quinoline-3-carbonitrile]",,,,4360,1000
"[2H][C@](Nc1cc(Cl)c2ncc(C#N)c(NCC3(C)CC(F)(F)C3)c2c1)(c1ccc(F)cc1)c1cn(C2CC2)nn1 [Example 199, (S)-8-chloro-6-(((1-cyclopropyl-1H-1,2,3-triazol-4-yl)(4-fluorophenyl)methyl-d)amino)-4-(((3,3-difluoro-1-methylcyclobutyl)methyl)amino) quinoline-3-carbonitrile]",,,21,395,
"Cc1c(C#N)cccc1[C@H](Nc1cc(Cl)c2ncc(C#N)c(NCC(C)(C)C)c2c1)c1cn(C2(C(F)F)CC2)nn1 [Example 1012, (S)-8-chloro-6-(((3-cyano-2-methylphenyl)(1-(1-(difluoromethyl)cyclopropyl)-1H-1,2,3-triazol-4-yl)methyl)amino)-4-(neopentylamino)quinoline-3-carbonitrile]",3,36,,,
"N#Cc1cnc2c(Cl)cc(N[C@@H](c3ccccc3)c3cn(C4CC4)nn3)cc2c1Nc1ccc(F)c(Cl)c1 [Example 609, (S)-8-chloro-4-((3-chloro-4-fluorophenyl)amino)-6-(((1-cyclopropyl-1H-1,2,3-triazol-4-yl)(phenyl)methyl)amino) quinoline-3-carbonitrile]",,,,384,7
"COc1c([C@@H](Nc2cc(C#N)c3ncc(C#N)c(NCC(C)(C)C)c3c2)c2ccccc2Cl)nnn1C1(C)CC1 [Example 1160, (S)-6-(((2-chlorophenyl)(5-methoxy-1-(1-methylcyclopropyl)-1H-1,2,3-triazol-4-yl)methyl)amino)-4-(neopentylamino)quinoline-3,8-dicarbonitrile]",71,930,,,
[2H][C@](Nc1cc(O)c2ncc(C#N)c(NCC(C)(C)C)c2c1)(c1ccc(F)cc1)c1cn(C2CC2)nn1 [Compound 43],,,1940,> 10000,
"[2H]C(Nc1cc(Cl)c2ncc(C#N)c(N[C@H]3CCCC[C@H]3NC(=O)OC(C)(C)C)c2c1)(c1ccc(F)cc1)c1cn(C2CC2)nn1 (stereo in doubt) [Example 231, tert-butyl ((1R,2S)-2-((8-chloro-3-cyano-6-(((S)-(1-cyclopropyl-1H-1,2,3-triazol-4-yl)(4-fluorophenyl)methyl-d)amino)quinolin-4-yl)amino)cyclohexyl)carbamate]",,,> 10000,> 10000,
"CC(C)(C)N1CCC(n2cc([C@@H](Nc3cc(Cl)c4ncc(C#N)c(N[C@H]5CCc6ccccc65)c4c3)c3ccccc3)nn2)CC1 [Example 581, 6-(((S)-(1-(1-(tert-butyl)piperidin-4-yl)-1H-1,2,3-triazol-4-yl)(phenyl)methyl)amino)-8-chloro-4-(((S)-2,3-dihydro-1H-inden-1-yl)amino)quinoline-3-carbonitrile]",,,,4220,333

# Now from value to compound:
"IC50 [1, 3] [nM]","EC50 [2, 4] [nM]","IC50 [1, 5] [nM]","EC50 [2, 6] [nM]","IC50 [1, 7] [nM]",SMILES
4,73,,,,"Cc1c([C@H](Nc2cc(Cl)c3ncc(C#N)c(NCC(C)(C)C)c3c2)c2cn(C3(C(F)(F)F)CC3)nn2)cccc1-n1cnnn1 [Example 1057, (S)-8-chloro-6-(((2-methyl-3-(1H-tetrazol-1-yl)phenyl)(1-(1-(trifluoromethyl)cyclopropyl)-1H-1,2,3-triazol-4-yl)methyl)amino)-4-(neopentylamino)quinoline-3-carbonitrile]"
,,5,87,,"[2H][C@](Nc1cc(Cl)c2ncc(C#N)c(N[C@H](CCO)c3ccccc3)c2c1)(c1cccc(C#N)c1)c1cn(C2CC2)nn1 [Example 259, 8-chloro-6-(((3-cyanophenyl)(1-cyclopropyl-1H-1,2,3-triazol-4-yl)methyl-d)amino)-4-(((R)-3-hydroxy-1-phenylpropyl)amino)quinoline-3-carbonitrile]"
85,620,,,,"Cc1ccccc1[C@H](Nc1cc(Cl)c2ncc(C#N)c(NCC(C)(C)C)c2c1)c1cn(C2(C(F)(F)F)CC2)nn1 [Example 1061, (S)-8-chloro-4-(neopentylamino)-6-((o-tolyl(1-(1-(trifluoromethyl)cyclopropyl)-1H-1,2,3-triazol-4-yl)methyl)amino)quinoline-3-carbonitrile]"
,,,348,2,"CN(C)C(=O)c1cccc([C@H](Nc2cc(Cl)c3ncc(C#N)c(Nc4cccc(Cl)c4F)c3c2)c2c[nH]nn2)c1 [Example 606, (S)-3-(((8-chloro-4-((3-chloro-2-fluorophenyl)amino)-3-cyanoquinolin-6-yl)amino)(1H-1,2,3-triazol-4-yl)methyl)-N,N-dimethylbenzamide]"
,,> 10000,> 10000,,"N#Cc1cnc2c(Cl)cc(N[C@@H](c3ccc(F)cc3)c3cnn(C(F)F)n3)cc2c1Nc1cnc(F)c(F)c1 [Example 378, (S)-8-chloro-6-(((2-(difluoromethyl)-2H-1,2,3-triazol-4-yl)(4-fluorophenyl)methyl)amino)-4-((5,6-difluoropyridin-3-yl)amino)quinoline-3-carbonitrile]"
,,> 10000,> 10000,,[2H]C(Nc1cc(Cl)c2ncc(C#N)c(N[C@H](CC)c3ccccc3)c2c1F)(c1cccc(C#N)c1)c1cn(C2CC2)nn1 (stereo partly shown) [Compound 36]
2,20,,,,"Cc1c(C#N)cccc1[C@H](Nc1cc(C#N)c2ncc(C#N)c(NCC(C)(C)C)c2c1)c1cn(C2(C)CC2)nn1 [Example 1148, (S)-6-(((3-cyano-2-methylphenyl)(1-(1-methylcyclopropyl)-1H-1,2,3-triazol-4-yl)methyl)amino)-4-(neopentylamino)quinoline-3,8-dicarbonitrile]"
2,35,,,,"Cc1c([C@H](Nc2cc(Cl)c3ncc(C#N)c(NCC(C)(C)C)c3c2)c2cn(C3(C(F)F)CC3)nn2)cccc1-n1cncn1 [Example 1049, (S)-8-chloro-6-(((1-(1-(difluoromethyl)cyclopropyl)-1H-1,2,3-triazol-4-yl)(2-methyl-3-(1H-1,2,4-triazol-1-yl)phenyl)methyl)amino)-4-(neopentylamino)quinoline-3-carbonitrile]"
,,21,1290,,"[2H][C@](Nc1cc(Cl)c2ncc(C#N)c(Nc3cnc(F)c(F)c3)c2c1)(c1ccc(F)cc1)c1c[nH]nn1 [Example 352, (S)-8-chloro-4-((5,6-difluoropyridin-3-yl)amino)-6-(((4-fluorophenyl) (1H-1,2,3-triazol-4-yl)methyl-d)amino) quinoline-3-carbonitrile]"
12,111,,,,"CC(C)(C)CNc1c(C#N)cnc2c(Cl)cc(N[C@@H](c3ccc(F)cc3)c3cn(C4(C#N)CC4)nn3)cc12 [Example 989, (S)-8-chloro-6-(((1-(1-cyanocyclopropyl)-1H-1,2,3-triazol-4-yl)(4-fluorophenyl)methyl)amino)-4-(neopentylamino)quinoline-3-carbonitrile]"
,,,1590,287,"CC(C)(C)N1CCC(n2cc([C@@H](Nc3cc(Cl)c4ncc(C#N)c(NN5CCOCC5)c4c3)c3ccccc3)nn2)CC1 [Example 580, (S)-6-(((1-(1-(tert-butyl)piperidin-4-yl)-1H-1,2,3-triazol-4-yl)(phenyl)methyl)amino)-8-chloro-4-(morpholinoamino)quinoline-3-carbonitrile]"
,,778,> 1000,,"CC[C@@H](Nc1c(C#N)cnc2c(Cl)cc(N[C@H](c3cn(C4CC4)nn3)c3ccccc3-c3ccccc3)cc12)c1ccccc1 [Example 96, 6-(((S)[1,1'-biphenyl]-2-yl(1-cyclopropyl-1H-1,2,3-triazol-4-yl)methyl)amino)-8-chloro-4-(((R)-1-phenylpropyl)amino) quinoline-3-carbonitrile]"
